The term inhibition denotes the drop in the measured response relative to a control, in per cent.

Assay [1] has as its target T1, cytoplasmic domain of the human CSF-1R (Homo sapiens, UniProt P07333).
T1 construct: Recombinant protein corresponding to the cytoplasmic domain of the human CSF-1R; purchased Invitrogen Corporation, Carlsbad, Calif; PV3249
T1 sequence (P07333 539-972 limits assumed): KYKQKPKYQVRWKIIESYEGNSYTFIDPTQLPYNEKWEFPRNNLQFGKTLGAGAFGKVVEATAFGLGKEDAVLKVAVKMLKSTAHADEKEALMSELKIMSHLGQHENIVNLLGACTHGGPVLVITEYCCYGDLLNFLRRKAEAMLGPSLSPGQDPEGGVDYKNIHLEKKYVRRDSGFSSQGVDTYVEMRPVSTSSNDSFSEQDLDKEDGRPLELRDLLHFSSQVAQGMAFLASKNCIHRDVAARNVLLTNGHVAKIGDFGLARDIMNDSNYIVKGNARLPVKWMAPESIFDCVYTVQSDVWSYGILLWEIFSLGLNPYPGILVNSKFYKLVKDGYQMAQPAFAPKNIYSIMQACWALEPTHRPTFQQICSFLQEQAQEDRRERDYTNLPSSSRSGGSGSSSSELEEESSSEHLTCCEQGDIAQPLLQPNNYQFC
As to the kind of experiment: In vitro kinase assay for colony stimulating factor-1 receptor (AlphaScreen). Particulars: read-out: CSF-1R percent inhibition. It counts as biochemical. In short, it runs like this:
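At a low ATP level of 1 μM, phosphate transfer by the cytoplasmic-domain kinase (4 nM) was quantified with an AlphaScreen anti-phosphotyrosine bead pair.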

For assay [2], the target named is T2, full-length human CSF-1R receptor (Homo sapiens, UniProt P07333).
T2 construct: transfected with the full-length human CSF-1R receptor cloned in house; expressed in transfected cells; host or cells: HEK293H (Invitrogen Cat. #11631017)
T2 sequence (P07333 20-972): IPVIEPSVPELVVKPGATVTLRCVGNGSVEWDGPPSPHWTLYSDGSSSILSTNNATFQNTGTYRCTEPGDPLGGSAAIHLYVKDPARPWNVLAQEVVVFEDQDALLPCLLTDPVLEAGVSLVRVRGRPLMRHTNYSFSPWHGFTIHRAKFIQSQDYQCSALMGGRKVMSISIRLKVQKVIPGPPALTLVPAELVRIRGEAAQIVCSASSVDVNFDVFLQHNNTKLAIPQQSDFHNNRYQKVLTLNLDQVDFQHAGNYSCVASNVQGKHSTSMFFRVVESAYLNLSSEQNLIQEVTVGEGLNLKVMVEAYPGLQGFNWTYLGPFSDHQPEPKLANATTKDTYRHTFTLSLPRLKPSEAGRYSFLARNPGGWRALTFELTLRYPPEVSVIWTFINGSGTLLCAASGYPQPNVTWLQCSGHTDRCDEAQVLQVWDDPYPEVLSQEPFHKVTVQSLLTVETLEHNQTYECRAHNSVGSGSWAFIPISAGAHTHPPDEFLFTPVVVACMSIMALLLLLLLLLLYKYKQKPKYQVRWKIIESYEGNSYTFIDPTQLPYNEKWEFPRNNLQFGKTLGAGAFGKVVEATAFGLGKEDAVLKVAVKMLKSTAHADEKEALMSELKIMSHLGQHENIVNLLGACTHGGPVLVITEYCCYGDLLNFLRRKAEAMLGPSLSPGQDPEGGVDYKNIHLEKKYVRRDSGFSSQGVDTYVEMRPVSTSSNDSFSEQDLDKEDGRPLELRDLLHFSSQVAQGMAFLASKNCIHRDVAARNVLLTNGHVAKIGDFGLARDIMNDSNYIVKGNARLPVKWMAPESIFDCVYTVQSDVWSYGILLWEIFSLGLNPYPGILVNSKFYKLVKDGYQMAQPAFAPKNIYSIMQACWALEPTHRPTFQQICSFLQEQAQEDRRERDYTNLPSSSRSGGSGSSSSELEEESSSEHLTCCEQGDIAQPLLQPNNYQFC
As to the kind of experiment: In vitro inhibition of CSF-1R receptor tyrosine phosphorylation in transfected HEK293H cells stimulated with MCSF. It counts as cell-based. Conditions: HEK293-H, read-out: pCSF1R percent inhibition. As for the experimental part:
The lysate was then transferred to total CSF-1R antibody coated 96-well plates that had already been blocked with 3% Blocker A from Mesoscale discovery (MSD) for 2 hours and washed afterwards. Lysates were incubated overnight at 4° C. and the plates were then washed 4× with MSD Tris Wash Buffer. […] The plates were read on the Sector 6000 instrument (MSD). Raw data was imported in Abase and EC50s calculated with XL-fit data analysis software.

The target in assay [3] is T3, kinase domain of cKIT (Homo sapiens, UniProt P10721).
T3 construct: The kinase domain of cKIT was assayed in 50 mM Hepes; purchased Upstate 14-559
T3 sequence (P10721 589-937 limits assumed): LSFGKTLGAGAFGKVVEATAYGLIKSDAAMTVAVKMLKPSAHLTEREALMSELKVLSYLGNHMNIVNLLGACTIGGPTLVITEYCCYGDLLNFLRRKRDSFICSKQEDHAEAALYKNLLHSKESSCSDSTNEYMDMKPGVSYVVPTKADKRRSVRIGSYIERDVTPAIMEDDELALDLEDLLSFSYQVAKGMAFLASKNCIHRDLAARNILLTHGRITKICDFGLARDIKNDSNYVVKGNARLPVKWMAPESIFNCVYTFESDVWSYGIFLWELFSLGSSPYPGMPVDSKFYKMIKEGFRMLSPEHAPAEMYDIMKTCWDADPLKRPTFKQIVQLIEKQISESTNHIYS
As to the kind of experiment: Inhibition of cKIT kinase signaling in an in vitro biochemical assay (alphascreen). Particulars: tested at about 1 μM; read-out: cKit percent inhibition. In general terms: In Alpha technology, singlet oxygen from a donor bead excites a nearby acceptor bead.

For assay [4], the target named is T4, kinase domain of PDGFRβ (Homo sapiens, UniProt P09619).
T4 construct: The kinase domain of PDGFRβ was assayed in 50 mM Hepes; purchased Invitrogen P3082
T4 sequence (P09619 600-962 limits assumed): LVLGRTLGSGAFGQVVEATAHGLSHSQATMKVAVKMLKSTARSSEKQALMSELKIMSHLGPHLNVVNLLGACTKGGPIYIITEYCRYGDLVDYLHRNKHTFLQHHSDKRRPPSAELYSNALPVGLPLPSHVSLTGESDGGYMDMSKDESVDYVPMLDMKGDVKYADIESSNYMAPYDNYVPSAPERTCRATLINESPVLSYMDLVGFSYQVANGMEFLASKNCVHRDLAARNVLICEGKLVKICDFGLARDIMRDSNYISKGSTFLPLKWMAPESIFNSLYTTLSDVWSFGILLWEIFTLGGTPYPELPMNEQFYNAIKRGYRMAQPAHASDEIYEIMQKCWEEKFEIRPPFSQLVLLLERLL
Kind of assay: Inhibition of PDGFRb kinase signaling in an in vitro biochemical assay (alphascreen). Conditions: tested at about 1 μM; read-out: PDGFRβ percent inhibition.

Assay [5] has as its system MNFS60 (murine AML cells). As to the kind of experiment: Cell viability assay in MCSF dependent MNFS60 cells (Cell Titer Glo). It counts as cell-based. Particulars: Mus musculus, read-out: M-NFS-60 CP percent inhibition. The gist of the method:
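Cells are cultured with 10 ng/ml MCSF and test compound for 72 hrs at 37° C. in 5% CO2. CellTiter-Glo reagent is then added to gauge viable cell number, and EC50s are fitted from triplicates.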
Background: In ATP-based viability assays light output follows the ATP content of the culture.

Setting [6] is: tested at about 1 μM, HEK293H cells.
Where [7] appears, read: tested at about 1 μM, MCSF dependent MNFS60 cells.

Read-outs that look alike come from different tables or passages of the source.

Turning to `CNC(=O)c1cc(Oc2ccc3nc(N[C@@H]4c5ccccc5C[C@@H]4O)sc3c2)ccn1` [Example 323, 4-(2-((1R,2S)-2-hydroxy-2,3-dihydro-1H-inden-1-ylamino)benzo[d]thiazol-6-yloxy)-N-methylpicolinamide], the inhibition at 1 µM was determined as 100% in assay [1] (tested at about 1 μM); 98% in assay [2] (setting [6]); 25% in assay [3]; 24% in assay [4]; 100% in assay [5] (setting [7]).
For `CNC(=O)c1cc(Oc2ccc3nc(N[C@@H]4CCCC[C@H]4NS(C)(=O)=O)sc3c2)ccn1` [Example 326, N-methyl-4-(2-((1R,2R)-2-(methylsulfonamido)cyclo-hexylamino)benzo[d]thiazol-6-yloxy)picolinamide], the inhibition at 1 µM in assay [1] (tested at about 1 μM) came out at 65%; in assay [2] (setting [6]) it was 81%; in assay [3], 44%; in assay [4] it was 7%; in assay [5] (setting [7]), 33%.
The corresponding values for `CNC(=O)c1cc(Oc2ccc3nc(N[C@@H](C)c4ccccc4OC)sc3c2)ccn1` [Example 328, (S)-4-(2-(1-(2-methoxyphenyl)ethylamino)benzo[d]thiazol-6-yloxy)-N-methylpicolinamide] are 100%, 80%, 14%, 0% and 63%.
The corresponding values for `CNC(=O)c1cc(Oc2ccc3nc(N[C@@H]4CCc5ccccc5C4)sc3c2)ccn1` [Example 329, (R)-N-methyl-4-(2-(1,2,3,4-tetrahydronaphthalen-2-ylamino)benzo[d]thiazol-6-yloxy)picolinamide] are 100%, 92%, 59%, 17% and 84%.
For `CNC(=O)c1cc(Oc2ccc3nc(N[C@H]4CCCC[C@@H]4NS(C)(=O)=O)sc3c2)ccn1` [Example 330, N-mehtyl-4-(2-((1S,2S)-2-(methylsulfonamido)cyclo-hexylamino)benzo[d]thiazol-6-yloxy)picolinamide] the same measures were 99%, 50%, 41%, 8% and 58%.
Take `CNC(=O)c1cc(Oc2ccc3nc(N[C@H]4CCCN(S(C)(=O)=O)C4)sc3c2)ccn1` [Example 331, (S)-N-methyl-4-(2-(1-(methylsulfonyl)piperidin-3-ylamino)benzo[d]thiazol-6-yloxy)picolinamide]: the inhibition at 1 µM in assay [1] (tested at about 1 μM) came to 100%; in assay [2] (setting [6]), 79%; in assay [3] it was 41%; in assay [4] it was 10%; in assay [5] (setting [7]), 68%.
For `CNC(=O)c1cc(Oc2ccc3nc(N[C@H]4CCCN(C(=O)C(C)C)C4)sc3c2)ccn1` [Example 334, (S)-4-(2-(1-isobutyrylpiperidin-3-ylamino)benzo[d]thiazol-6-yloxy)-N-methylpicolinamide] the same measures were 100%, 71%, 20%, 15% and 67%.
The corresponding values for `CNC(=O)c1cc(Oc2ccc3nc(N[C@H]4CCCN(C(=O)C5CCCC5)C4)sc3c2)ccn1` [Example 335, (S)-4-(2-(1-(cyclopentanecarbonyl)piper-idin-3-ylamino)benzo[d]thiazol-6-yloxy)-N-methylpicolinamide] are 100%, 50%, 21%, 0% and 57%.
The corresponding values for `CCNc1cc(Oc2ccc3nc(NCC4CCCCC4)sc3c2)ccn1` [Example 339, N-(cyclohexylmethyl)-6-(2-(ethylamino)pyridin-4-yloxy)benzo[d]thiazol-2-amine] are 100%, 84%, 66%, 69% and 66%.
With `Cn1cc(-c2cc(Oc3ccc4nc(NCC5CCCCC5)sc4c3)ccn2)cn1` [Example 340, N-(cyclohexylmethyl)-6-(2-(1-methyl-1H-pyrazol-4-yl)pyridin-4-yloxy)benzo[d]thiazol-2-amine], the inhibition at 1 µM came to 100% in assay [1] (tested at about 1 μM); 96% in assay [2] (setting [6]); 100% in assay [3]; 98% in assay [4]; 100% in assay [5] (setting [7]).
For the compound `c1cc(Oc2ccc3nc(NCC4CCCCC4)sc3c2)cc(-c2cn[nH]c2)n1` [Example 341, 6-(2-(1H-pyrazol-4-yl)pyridin-4-yloxy)-N-(cyclohexylmethyl)benzo[d] thiazol-2-amine], the inhibition at 1 µM worked out at 100% in assay [1] (tested at about 1 μM); 96% in assay [2] (setting [6]); 99% in assay [3]; 88% in assay [4]; 99% in assay [5] (setting [7]).
As for `c1cc(Oc2ccc3nc(NCC4CCCCC4)sc3c2)cc(-c2ncco2)n1` [Example 342, N-(cyclohexylmethyl)-6-(2-(oxazol-2-yl)pyridin-4-yloxy)benzo[d]thiazol-2-amine], the inhibition at 1 µM in assay [1] (tested at about 1 μM) amounted to 100%; in assay [2] (setting [6]), 87%; in assay [3] it was 84%; in assay [4] it was 61%; in assay [5] (setting [7]), 75%.
On to `Cn1cc(-c2cc(Oc3ccc4nc(N[C@@H]5CCCC[C@H]5O)sc4c3)ccn2)cn1` [Example 344, (1R,2R)-2-(6-(2-(1-methyl-1H-pyrazol-4-yl)pyridin-4-yloxy)benzo[d]thiazol-2-ylamino)cyclohexanol], for which the inhibition at 1 µM is 100% in assay [1]; 95% in assay [2]; 45% in assay [3]; 65% in assay [4]; 100% in assay [5].
With `O[C@@H]1CCCC[C@H]1Nc1nc2ccc(Oc3ccnc(-c4cccnc4)c3)cc2s1` [Example 345, (1R,2R)-2-(6-(2,3'-bipyridin-4-yloxy)benzo[d]thiazol-2-ylamino)cyclohexanol], the inhibition at 1 µM in assay [1] (tested at about 1 μM) was determined as 100%; in assay [2] (setting [6]), 93%; in assay [3] it was 19%; in assay [4] it was 13%; in assay [5] (setting [7]) it was 97%.
Take `Nc1ncc(-c2cc(Oc3ccc4nc(N[C@@H]5CCCC[C@H]5O)sc4c3)ccn2)cn1` [Example 346, (1R,2R)-2-(6-(2-(2-aminopyrimidin-5-yl)pyridin-4-yloxy)benzo[d]thiazol-2-ylamino)cyclohexanol]: the inhibition at 1 µM came to 100% in assay [1] (tested at about 1 μM); 84% in assay [2] (setting [6]); 13% in assay [3]; 0% in assay [4]; 67% in assay [5] (setting [7]).
For `Cn1cc(-c2cc(Oc3ccc4nc(N[C@@H](CO)C5CCCCC5)sc4c3)ccn2)cn1` [Example 347, (R)-2-cyclohexyl-2-(6-(2-(1-methyl-1H-pyrazol-4-yl)pyridin-4-yloxy)benzo[d]thiazol-2-ylamino)ethanol] the same measures were 100%, 99%, 37%, 58% and 100%.
For `Cn1cc(-c2cc(Oc3ccc4nc(N[C@@H]5c6ccccc6C[C@@H]5O)sc4c3)ccn2)cn1` [Example 348, (1R,2S)-1-(6-(2-(1-methyl-1H-pyrazol-4-yl)pyridin-4-yloxy)benzo[d]thiazol-2-ylamino)-2,3-dihydro-1H-inden-2-ol] the same measures were 100%, 90%, 47%, 55% and 100%.

The values above are taken from patent publication US8173689B2 (Novartis AG, priority 2006, dated 2012).
